Reference: article PMC8064491, “Design and Synthesis of Novel Symmetric Fluorene-2,7-Diamine Derivatives as Potent Hepatitis C Virus Inhibitors” (Pharmaceuticals, 2021)
Read-outs that look alike come from different tables or passages of the source.

Assays:
[1] = test system: HCV genotype 1b replicon (Huh5-2 cells); test: Drug-drug interaction with daclatasvir in Huh5-2 replicon cells (F-Luc activity); assay type: cell-based, Hepatitis C virus
Procedure: Next, we investigated the effect of compound 26 in the presence of daclatasvir (DCV) in Huh5-2 replicon cells. […] It is worth noting that NS5A is a very flexible protein and can attain different conformations (open conformer and closed conformer PDB ID: 1ZH1, 3FQM, respectively); thus, there is the potential for different binding modes of daclatasvir and our molecules, at the active center of the NS5A protein, leading to synergism.
The coefficient of Drug interactions (CDI) is calculated as follows: CDI = AB / (A × B), where AB is the ratio of the combination groups to the control group; A or B is the ratio of the single-agent group to the control group.
Figure 4 Synergistic anti-HCV activity of compound 26 with daclatasvir (DCV). Huh5-2 cells were treated with 30 pM or […] of DCV was used to in the presence or absence of the analog. F-Luc activity was quantified as relative light units (RLU) per μg of total protein. Values derived from cells treated with the solvent DMSO (control—C) were set to 100%. CDI: coefficient of drug interaction. Bars show mean values derived from three independent experiments in triplicate. Error bars denote standard deviation (SD). TEXT PRINTED IN THE PICTURE: 26 + DCV: CDI: 0,68 (DCV 15 pM - Comp. 26 25 pM); CDI: 0,70 (DCV 30 pM - Comp. 26 50 pM)

[2] = test system: HCV subgenomic replicon of genotype 3a (strain S52); test: Anti-HCV 3a activity, replicon assay in Huh7.5-3a cells; assay type: cell-based, Hepatitis C virus
Description: (§1) Compound 26, showing the highest activity on genotype 1b was further tested against HCV 3a and 4a replicons. The fact that genotype 4 is highly heterogeneous, of less response to DAAs, and the most prevalent genotype in Egypt, made this genotype of specific interest. Moreover, genotype 3 is the most difficult to treat genotype using DAAs, especially in patients with liver cirrhosis. Specifically, Huh7.5-3a and Huh7.5-4a stable cell lines having HCV subgenomic replicons of genotypes 3a (strain S52) and 4a (strain ED43), respectively, were treated with different concentrations of compound 26. […] Further structural optimization is required, and testing compound 26 in combination with other DAAs could improve the clinical outcome.
(§2) The stable replicon cell line Huh5-2 (genotype 1b; Con1) (kindly provided by R. Bartenschlager, Heidelberg University, Germany) has been described previously. The stable cell lines Huh7.5-3a and Huh7.5-4a have been constructed with the subgenomic reporter replicons of HCV 3a (S52) S52-SG(Feo)(AII) and HCV 4a (ED43) ED43-SG(Feo)(VYG) (kindly provided by C.M. Rice, The Rockefeller University, NY). Cells were cultured in high glucose (25 mM) Dulbecco’s modified minimal essential medium (Invitrogen), supplemented with 2 mM L-glutamine, 0.1 mM non-essential amino acids, 100 U/mL penicillin, 100 µg/mL streptomycin, and 10% (v/v) fetal calf serum (referred to as complete DMEM). Complete DMEM was supplemented with G418 at 500 μg/mL for Huh5-2, 750 μg/mL for Huh7.5-3a, and 350 μg/mL for Huh7.5-4a.
(§3) Cells were treated with serial dilutions of the test compounds or the solvent DMSO for 72 h. Antiviral activity and cytotoxicity were determined by measuring virus-derived luciferase activity or intracellular ATP levels, respectively. […]
(§4) Firefly luciferase activity was measured using Luciferase Assay System (Promega), according to the manufacturer’s instructions. […] Values were normalized to total protein amounts as quantified by Bradford assay (Pierce).

[3] = test system: HCV subgenomic reporter replicon of genotype 1b (strain Con1); test: Anti-HCV 1b activity, luciferase reporter replicon assay in Huh5-2 cells; assay type: cell-based, Hepatitis C virus; details: for EC50: Hepatitis C virus
Procedure: (§5) The HCV RNA replication inhibitory effect of the novel compounds and their impact on cell viability was tested in the stable cell line Huh5-2 carrying an HCV subgenomic reporter replicon of genotype 1b (strain Con1). The viral replication level was measured in terms of the activity of the co-expressed firefly luciferase (F-Luc). Several concentrations of the tested compounds were prepared in a cell culture medium and were used to treat the cells for 72 h. The solvent DMSO was added as a control with a final concentration of 0.2% so as not to impact viral replication (data not shown). First, different compound concentrations of up to 100 μM were evaluated for their effect on cell viability; results are reported as the median cytotoxic concentration (CC50). Next, all compounds were screened for their anti-HCV activity at a concentration of 1 µM, and compounds showing ≥50% activity were further tested in several concentrations to calculate the median effective concentration (EC50) values (Table 1 and Table 2). The anti-HCV activity of the analogs 1–32 was estimated by quantifying luciferase activity resulting from viral replication. Cytotoxicity was determined by measuring the intracellular levels of ATP. The selectivity index (SI50) was calculated as the ratio of CC50 to EC50 and was calculated as an indication of the compounds’ safety. We used daclatasvir as a positive control.
as §2
(§6) Cells were treated with serial dilutions of the test compounds or the solvent DMSO for 72 h. Antiviral activity and cytotoxicity were determined by measuring virus-derived luciferase activity or intracellular ATP levels, respectively. The median effective concentration (EC50) of the compounds, reducing luciferase signal by 50%, and their median cytotoxic concentration (CC50), causing 50% cell death, were determined by nonlinear regression analysis using the Prism 6.0 software (GraphPad Software Inc.). Daclatasvir was kindly provided by Dr. Marc Windisch (Institut Pasteur Korea).
Firefly luciferase activity was measured using Luciferase Assay System (Promega), according to the manufacturer’s instructions. Measurements were performed with a GloMax 20/20 single tube luminometer (Promega) for 10 s. Values were normalized to total protein amounts as quantified by Bradford assay (Pierce).

[4] = test system: HCV 1b RNA; test: Quantification of (+) strand HCV RNA by RT-qPCR in Huh5-2 cells; assay type: cell-based; details: Hepatitis C virus, Huh-5-2, normalized to YWHAZ
Procedure: The HCV RNA and NS5A protein levels were determined in cells treated with compound 26 using reverse transcription-quantitative polymerase chain reaction (RT-qPCR) or Western blot analysis, respectively (Figure 5A).
Total RNA was extracted from Huh5-2 cells with Nucleozol reagent (Macherey-Nagel), according to the manufacturer’s instructions, and used to perform reverse-transcription (RT) and quantitative real-time polymerase chain reaction (qPCR) for replicon RNA. RT was performed using Moloney Murine Leukemia Virus (MMLV) reverse transcriptase (Promega) and reverse primers specific for Con1 IRES (5’-[…]-3’) and the housekeeping gene YWHAZ (5’- […]-3’). For qPCR, primers specific for the Con1 IRES (forward: 5’-[…]-3’and reverse: 5’-[…]-3’) and KAPA SYBR FAST qPCR Master Mix (Kapa Biosystems) were used. YWHAZ mRNA was used as a normalization control (forward: 5’-[…]-3’ and reverse: 5’- […]-3’).
Figure 5 Anti-HCV activity of compound 26 at the level of viral RNA and protein. Different concentrations of compound 26, or the solvent DMSO (control—C), were used to treat Huh5-2 cells. (A) Quantification of (+) strand HCV RNA by RT-qPCR. Values are expressed as a percentage of those obtained from control cells. mRNA levels of the housekeeping gene 14-3-3-zeta polypeptide (YWHAZ) were used for normalization. (B) (Top) Western blot analysis for NS5A. β-actin was used as a loading control. […]

[5] = test system: HCV subgenomic replicon of genotype 4a (strain ED43); test: Anti-HCV 4a activity, replicon assay in Huh7.5-4a cells; assay type: cell-based; details: Hepatitis C virus, read-out: EC50 GT 4a
Description: as §1
The stable replicon cell line Huh5-2 (genotype 1b; Con1) (kindly provided by R. Bartenschlager, Heidelberg University, Germany) has been described previously. […]
as §3, §4

[6] = Cytotoxicity by intracellular ATP levels; assay type: cell-based; details: human, Huh5-2 cells, read-out: HCV Replicon 1b CC50
Procedure: as §5, §6
ATP was measured using the ViaLight HS BioAssay kit (Lonza) according to the manufacturer’s protocol in a GloMax 20/20 single-tube luminometer (Promega) for 1 s. Values were normalized to total protein amounts.

CCOC(=O)N[C@@H](C(=O)N1CCC[C@H]1C(=O)Nc1ccc2c(c1)Cc1cc(NC(=O)[C@@H]3CCCN3C(=O)[C@H](NC(=O)OCC)c3ccccc3)ccc1-2)c1ccccc1 [Compound 26, Diethyl((1R,1’R)-((2S,2’S)-(((9H-fluorene-2,7-diyl)bis(azanediyl))bis(carbonyl))bis(pyrrolidine-2,1-diyl))bis(2-oxo-1-phenylethane-2,1-diyl))dicarbamate]
CDI ([1]; DCV 15 pM - Comp. 26 25 pM): 0,68
CDI ([1]; DCV 30 pM - Comp. 26 50 pM): 0,70
coefficient of drug interaction (CDI) ([1]; compound 26 with daclatasvir, CDI <1 synergistic): ≈ 0.7
effect on GT 3a relative to daclatasvir ([2]; EC50 ratio): seven-fold higher
EC50 ([2]; Hepatitis C virus, read-out: EC50 GT 3a): 1.2 nM
fold more active than S counterparts ([3]; 25 vs 21, 26 vs 22, HCV 1b EC50 ratio): 200 fold
EC50 ([3]; Huh-5-2, 72 h, read-out: HCV Replicon 1b EC50): 0.036 nM
EC50 ([3]; Huh-5-2, read-out: EC50 against HCV genotype 1b): 0.04 nM
selectivity index relative to daclatasvir ([3]; SI50 ratio): four-fold better
EC50 [4]: 0.03 nM
EC50 [5]: 117 nM
CC50 at 72 h [6]: > 100000 nM
